This note sets out measurements from patent publication US20230303510A1, “CYCLIZED ACETAMIDO DERIVATIVES AS DNA POLYMERASE THETA INHIBITORS” (Ideaya Biosciences, Inc., priority 2020, published 2023).

Test [1] deals with T1, Pol theta polymerase domain (residues 1819-2590) (Homo sapiens, UniProt O75417).
T1 construct: Pol theta polymerase domain (residues 1819-2590) at a final concentration of 4 nM
T1 sequence (O75417 1819-2590): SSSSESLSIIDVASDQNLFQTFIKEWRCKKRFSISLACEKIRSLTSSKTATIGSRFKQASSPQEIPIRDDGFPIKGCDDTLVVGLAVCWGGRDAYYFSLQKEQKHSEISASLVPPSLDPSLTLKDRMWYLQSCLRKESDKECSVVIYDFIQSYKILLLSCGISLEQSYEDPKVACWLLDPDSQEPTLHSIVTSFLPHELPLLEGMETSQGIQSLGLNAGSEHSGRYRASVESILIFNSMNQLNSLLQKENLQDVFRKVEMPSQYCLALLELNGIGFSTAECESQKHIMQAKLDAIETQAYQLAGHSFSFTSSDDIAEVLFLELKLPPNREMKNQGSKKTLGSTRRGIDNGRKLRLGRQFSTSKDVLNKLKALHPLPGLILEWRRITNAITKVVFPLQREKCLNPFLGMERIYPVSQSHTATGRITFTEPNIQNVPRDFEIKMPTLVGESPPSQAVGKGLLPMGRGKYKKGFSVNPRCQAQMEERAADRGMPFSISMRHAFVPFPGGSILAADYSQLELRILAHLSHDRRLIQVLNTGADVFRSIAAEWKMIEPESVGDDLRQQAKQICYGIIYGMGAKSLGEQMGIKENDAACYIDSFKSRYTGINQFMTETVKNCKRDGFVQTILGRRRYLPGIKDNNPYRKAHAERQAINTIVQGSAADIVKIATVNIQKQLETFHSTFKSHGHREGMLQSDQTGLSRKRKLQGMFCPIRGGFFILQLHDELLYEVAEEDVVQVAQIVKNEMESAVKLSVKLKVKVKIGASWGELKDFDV
In words: Primer extension assay (inhibition of polymerase activity of Pol theta, molecular beacon fluorescence). Type of test: biochemical. The following applies: Pol theta polymerase domain 4 nM; fluorescence change over 30 min. The procedure:
The ability of the compounds of Formula (I) or Formula (II) to inhibit polymerase activity of Pol theta was determined using the primer extension assay as set forth below.
A mixture of 20 uL of Pol theta polymerase domain (residues 1819-2590) at a final concentration of 4 nM in assay buffer (20 m M TRIS, pH 7.80, 50 mM KCl, 10 mM MgCl2, 1 mM DTT, 0.01% BSA, 0.01% Tween20) was added to test compounds (11-point dilution series of test compounds) except the low control wells without test compounds. The above enzyme and test compound inhibitor mixture was then incubated at room temperature for 15 min. An equal volume (20 μl) of dNTP substrate mixture (48 μM) and primed molecular beacon DNA (obtained by annealing template SEQ ID NO:2: (5′-CCTTCCTCCCGTGTCTTG-TACCTTCCCGTCA-GGAGGAAGG-3′) with 5′-TAMRA and 3′-BHQ and primer DNA (SEQ ID NO:3; 5′-GACGGGAAGG-3′) in 10 mM Tris-HCl pH 8.0, 100 mM NaCl buffer) (96 nM) in assay buffer was added to all the test wells. The inhibition activity was measured by monitoring the fluorescence change over 30 min at 535 nm upon excitation at 485 nm. The high control (DMSO with enzyme) with high fluorescence intensity represents no inhibition of polymerase reaction while the low control (DMSO with buffer) with low fluorescence intensity represents full inhibition of polymerase activity. Slope of the reaction progress curves were used to calculate the rate of polymerization. The rates were used to determine the percent inhibition using a four-parameter inhibition model to generate IC50, Hill slope and max inhibition.

For test [2], the target named is T2, Pol theta (residues 1819-2590) (Homo sapiens, UniProt O75417).
T2 construct: Pol theta polymerase domain (residues 1819-2590) at a final concentration of 4 nM
T2 sequence (O75417 1819-2590): T1 sequence (O75417 1819-2590)
Briefly: PPi assay (inhibition of polymerase activity of Pol theta, PPiLite luminescence). The format is biochemical. To be noted: Pol theta 2.8 nM; luminescence kinetic mode 90 min. The procedure:
The ability of the compounds of Formula (I) or Formula (II) to inhibit polymerase activity of Pol theta was determined using the PPi assay as set forth below.
A mixture of template DNA strand (SEQ ID NO:4: 5′ ATTACTGACCTCATACTTCTGCCCTTCCATGTTCTGTGCCCTCCTTCC 3′) and primer DNA strand (SEQ ID NO:5: 5′ GGA AGG AGG GCA CAG AAC 3′) was annealed in 10 mM Tris-HCl pH 8.0, […] buffer to form the primed DNA substrate. A 10-point dilution series of compounds were used in a 384 well format for the inhibition assay. Pol theta (residues 1819-2590) (2.8 nM) in assay buffer (20 mM Tris-HCl pH 7.8, 50 mM KCl, 10 mM MgCl2, 1 mM DTT, 0.01% BSA, 0.01% Tween-20) was transferred to the test wells (10 uL), except for the low control wells. The plate was then incubated at room temperature for 15 mins. An equal volume (10 μL) of dNTP substrate (40 μM) and primed DNA substrate (800 nM) in assay buffer was added to all the test wells. 20 μL of PPi detection reagent (PPiLite inorganic pyrophosphate assay, Lonzo) was then added to all test wells. The plate was then centrifuged at 1000 rpm for 1 min. The reaction was monitored in a Tecan M1000 Pro plate reader in luminescence kinetic mode for 90 min. The high control (DMSO with enzyme) with high luminescence represents no inhibition of the polymerase reaction while the low control (DMSO with buffer) with low luminescence represents full inhibition of the polymerase activity. Slope of the reaction progress curves were used to calculate the rate of polymerization. The rates were used to determine the percent inhibition using a four-parameter inhibition model to generate IC50, Hill slope, maximum inhibition, and minimum inhibition.

With `CN(C(=O)[C@H]1CCCN1c1cc(C(F)(F)F)cc(C(F)(F)F)n1)c1ccc(F)cc1` [1.002, (R)-1-(4,6-bis(trifluoromethyl)pyridin-2-yl)-N-(4-fluorophenyl)-N-methylpyrrolidine-2-carboxamide], the IC50 in test [1] and in test [2] was 1000 to 10000 nM throughout.
As for `CN(C(=O)[C@@H]1CCCN1c1cc(C(F)(F)F)cc(C(F)(F)F)n1)c1ccc(F)cc1` [1.003, (S)-1-(4,6-bis(trifluoromethyl)pyridin-2-yl)-N-(4-fluorophenyl)-N-methylpyrrolidine-2-carboxamide], the IC50 in test [1] and in test [2] was ≤ 200 nM throughout.
With `CN(C(=O)C1COCCN1c1cc(C(F)(F)F)cc(C(F)(F)F)n1)c1ccc(F)cc1` (stereo not drawn) [1.006, 4-(4,6-bis(trifluoromethyl)pyridin-2-yl)-N-(4-fluorophenyl)-N-methylmorpholine-3-carboxamide], the figures for the IC50 in test [1] and in test [2] were ≤ 200 nM and 1000 to 10000 nM, respectively.
As for `CN(C(=O)[C@@H]1[C@@H](O)CCN1c1cc(C(F)(F)F)cc(C(F)(F)F)n1)c1ccc(F)cc1` [1.019, (2S,3S)-1-(4,6-bis(trifluoromethyl)pyridin-2-yl)-N-(4-fluorophenyl)-3-hydroxy-N-methylpyrrolidine-2-carboxamide], the IC50 in test [1] and in test [2] was ≤ 200 nM in each case.
`CC(=O)N[C@H]1C[C@@H](C(=O)N(C)c2ccc(F)cc2)N(c2cc(C(F)(F)F)cc(C(F)(F)F)n2)C1` [1.020, (2S,4S)-4-acetamido-1-(4,6-bis(trifluoromethyl)pyridin-2-yl)-N-(4-fluorophenyl)-N-methylpyrrolidine-2-carboxamide]: the half-inhibitory concentration (IC50) in test [1] and in test [2] was ≤ 200 nM in each case.
For `CC(=O)N[C@@H]1C[C@@H](C(=O)N(C)c2ccc(F)cc2)N(c2cc(C(F)(F)F)cc(C(F)(F)F)n2)C1` [1.022, (2S,4R)-4-acetamido-1-(4,6-bis(trifluoromethyl)pyridin-2-yl)-N-(4-fluorophenyl)-N-methylpyrrolidine-2-carboxamide], the IC50 in test [1] and in test [2] was ≤ 200 nM throughout.
Take `CN(C(=O)C1CCCN1c1nc(C(F)(F)F)cc(C(F)(F)F)c1C#N)c1ccc(F)cc1` (stereo not drawn) [1.024, 1-(3-cyano-4,6-bis(trifluoromethyl)pyridin-2-yl)-N-(4-fluorophenyl)-N-methylpyrrolidine-2-carboxamide]: the IC50 in test [1] and in test [2] was ≤ 200 nM in each case.
Take `O=C([C@@H]1CCCN1c1cc(C(F)(F)F)cc(C(F)(F)F)n1)N(c1ccc(F)cc1)C1COC1` [1.030, (S)-1-(4,6-bis(trifluoromethyl)pyridin-2-yl)-N-(4-fluorophenyl)-N-(oxetan-3-yl)pyrrolidine-2-carboxamide]: the IC50 – broadly, the concentration that gives 50% inhibition – in test [2] was ≤ 200 nM.
